Assay results published in patent US20260174748A1, “AGENT FOR ALLEVIATING CLOZAPINE-INDUCED SIALORRHEA” (National University Corporation Chiba University, priority 2022, published 2026).
Read-outs that look alike come from different tables or passages of the source.

Experiments:
Format in all cases: in vivo, rat
male Wister rats = experiment: Creation of CIS model animals: saliva amount after oral clozapine; conditions: for saliva amount: 7 days
Procedure: CIS model animals were created with reference to previous studies (Ishikawa S, J. Pharmacol. Exp. Ther., 2020, November; 375(2): 376-384).
As experimental animals, 6 to 8-week-old male Wister rats (made by CLEA Japan, Inc.) were used. The animals were freely ingested and fed on water and normal feed except for the period of time from 1 hour before the saliva amount measurement described below to the measurement.
(§1) Water and feed were limited from 1 hour before the saliva amount measurement.
(§2) As a method for measuring the amount of saliva, a small piece of cotton ball was placed in the mouth of the restrained rat and swabbed for 10 seconds (the saliva was absorbed into the cotton ball). This was repeated three times, and the mass change of the cotton ball was measured. The mass change was measured as the saliva amount collected over a total of 30 seconds.

CIS model rats [1] = experiment: Experiment 5: MK-801 in combination with NMDA receptor agonists D-serine or Glycine in CIS model rats; conditions: 3 times; for reduction in saliva amount by MK-801, compared to group B / resulting saliva amount relative to group A (control): 900 mg/kg oral, 1 hour later MK-801 0.1 mg/kg intraperitoneal; for reduction in saliva amount by MK-801, compared to group B: D-serine p<0.05, glycine p<0.01; for resulting saliva amount relative to group A (control): day 9
Procedure: as §1, §2
Experiment 5 was performed on CIS model rats of groups A to D as follows.
• Group A (control): The solvent (5 mL/kg) was orally administered, and then 1 hour later, saline (1 mL/kg) was intraperitoneally administered. This administration was performed for a total of 3 times. • Group B: The solvent (5 mL/kg) was orally administered, and then 1 hour later, MK-801 (0.1 mg/kg) was intraperitoneally administered. This administration was performed for a total of 3 times. • Group C: D-serine (900 mg/kg) was orally administered, and then 1 hour later, MK-801 (0.1 mg/kg) was intraperitoneally administered. This administration was performed for a total of 3 times. • Group D: Glycine (900 mg/kg) was orally administered, and then 1 hour later, MK-801 (0.1 mg/kg) was intraperitoneally administered. This administration was performed for a total of 3 times.
Note that the administration was performed once in the morning and once in the afternoon on day 8 and once in the morning on day 9 for a total of 3 times. The saliva amount was measured 1 hour after the final administration.

CIS model rats [2] = experiment: Experiment 4: acute phase effect of MK-801 and SA4503 on clozapine-induced sialorrhea; conditions: total of 3 times, 1 hour after final administration
Procedure: as §1, §2
The alleviating effect (acute phase effect) on clozapine-induced sialorrhea by a selective NMDA receptor antagonist MK-801 and a selective sigma-1 receptor agonist SA4503 were investigated. Experiment 4 was performed on CIS model rats of groups A to C as follows.
• Group A (control): Intraperitoneal administration of saline (1 mL/kg) for a total of 3 times • Group B: Intraperitoneal administration of MK-801 (0.1 mg/kg) for a total of 3 times • Group C: Intraperitoneal administration of SA4503 (1 mg/kg) for a total of 3 times
Note that the intraperitoneal administration was performed once in the morning and once in the afternoon on day 8 and once in the morning on day 9 for a total of 3 times. The saliva amount was measured 1 hour after the final administration.

CIS model rats [3] = conditions: group B, DXM 30 mg/kg/day intraperitoneal on days 8 and 9 after clozapine 100 mg/kg/day days 1-7; p<0.01
Procedure: as §1, §2
In the above Experiment 1, the saliva amount was measured 24 hours after DXM administration. […] The following studies were performed on the acute phase effect of dextromethorphan (DXM) using the above-described CIS model animals (CIS model rats).
Swabs were conducted on a daily basis to accustom the model animals with saliva measurements.
• Group A: Intraperitoneal administration of saline (1 mL/kg) once per day • Group B: Intraperitoneal administration of DXM (30 mg/kg/day) once per day
On Day 9, the saliva amount was measured 1 hour after DXM administration.

CIS model rats [4] = conditions: for change in saliva amount from day 7 to day 9 (1 hour after administration): total of 3 times
Procedure: as §1, §2
The dose of dextromethorphan (DXM) was changed to examine the dose-dependency of clozapine-induced sialorrhea suppression effect.
The following studies were performed on the dose-dependency of the acute phase effect of DXM using the above-described CIS model animals (CIS model rats).
Note that swabs were performed on days 5 and 6 to accustom the model animals with the saliva measurement.
• Group A: Intraperitoneal administration of saline (1 mL/kg) for a total of 3 times • Group B: Intraperitoneal administration of saline (1 mL/kg) for a total of 3 times • Group C: Intraperitoneal administration of DXM (3 mg/kg) for a total of 3 times • Group D: Intraperitoneal administration of DXM (30 mg/kg) for a total of 3 times • Group E: Intraperitoneal administration of DXM (60 mg/kg) for a total of 3 times
The agent of the above dose was administered once in the morning and once in the afternoon on day 8 and once in the morning on day 9 for a total of 3 times. The saliva amount was measured 1 hour after the final administration.

CIS model rats [5] = conditions: group C
Procedure: as §1, §2
The dose and period of administration of the NMDA receptor antagonist dextromethorphan (DXM) were investigated using the above-described CIS model animals (CIS model rats). Experiment 1 was performed on CIS model rats of groups A to C as follows.
The saliva amount was measured before drug administration on day 14 (24 hours after drug administration up to day 13).

SMILES: CN1CCN(C2=Nc3cc(Cl)ccc3Nc3ccccc32)CC1 [clozapine]
- saliva amount (male Wister rats; 25 mg/kg/day orally once per day): did not increase
- saliva amount (male Wister rats; 50 mg/kg/day orally once per day, from day 3 of administration): increased significantly
- saliva amount (male Wister rats; 100 mg/kg/day orally once per day, from day 3 of administration): increased significantly
- amount of saliva secretion (male Wister rats; single oral dose of 25, 50 or 100 mg/kg/day, measured 4 times per day, every 6 hours from 1 hour after administration): no increase in the amount of saliva secretion was observed

SMILES: NCC(=O)O [glycine, Glycine]
- reduction in saliva amount by MK-801, compared to group B (CIS model rats [1]): significantly antagonized
- resulting saliva amount relative to group A (control) (CIS model rats [1]): same level as that in group A

SMILES: C[C@]12N[C@H](Cc3ccccc31)c1ccccc12 [MK-801, dizocilpine (MK-801)]
- saliva amount on day 9 compared to group A (control) (CIS model rats [2]; group B, MK-801 0.1 mg/kg intraperitoneal, p<0.01): significantly reduced
- saliva amount on day 9 compared to group A (control) (CIS model rats [1]; group B, solvent oral then MK-801 0.1 mg/kg intraperitoneal, p<0.05): significantly reduced

SMILES: COc1ccc2c(c1)[C@]13CCCC[C@@H]1[C@H](C2)N(C)CC3 [dextromethorphan]
- saliva amount at 1 hour after administration on day 9 (CIS model rats [3]): significantly reduced
- change in saliva amount from day 7 to day 9, group E compared to group C (CIS model rats [4]; DXM 60 mg/kg compared to DXM 3 mg/kg, intraperitoneal, 3 times, p<0.01): significantly reduced
- dose-dependency of clozapine-induced sialorrhea suppression effect (CIS model rats [4]; DXM 3, 30, 60 mg/kg intraperitoneal): dose-dependent
- change in saliva amount from day 7 to day 9 (1 hour after administration) (CIS model rats [4]; group D, DXM 30 mg/kg intraperitoneal, p<0.05): significantly reduced
- change in saliva amount from day 7 to day 9 (1 hour after administration) (CIS model rats [4]; group E, DXM 60 mg/kg intraperitoneal, p<0.001): significantly reduced
- change in saliva amount on day 14 based on the saliva amount on day 7 (CIS model rats [5]; DXM 30 mg/kg/day intraperitoneal + clozapine, compared to groups A and B, p<0.01): significantly reduced
- saliva amount on day 14 (CIS model rats [5]; DXM 30 mg/kg/day intraperitoneal on days 8 to 13 in addition to clozapine 100 mg/kg/day, 24 hours after administration): reduction of saliva amount was observed

SMILES: COc1ccc(CCN2CCN(CCCc3ccccc3)CC2)cc1OC [SA4503]
- saliva amount on day 9 compared to group A (control) (CIS model rats [2]; group C, SA4503 1 mg/kg intraperitoneal, p<0.05): significantly reduced

SMILES: N[C@H](CO)C(=O)O [D-serine]
- reduction in saliva amount by MK-801, compared to group B (CIS model rats [1]): significantly antagonized
- resulting saliva amount relative to group A (control) (CIS model rats [1]): same level as that in group A
